Test results: US20230227466A1, “SUBSTITUTED THIENOPYRIMIDINES THAT INTERACT WITH THE RAS SUPERFAMILY FOR THE TREATMENT OF CANCERS, INFLAMMATORY DISEASES, RASOPATHIES, AND FIBROTIC DISEASE” (SHY Therapeutics, LLC, priority 2020, published 2023)
Where two headings read alike, the source gives them in different places.

Tests used:
[1] = molecular target: T1, KRas G12C mutant (Homo sapiens, UniProt P01116, G12C); experiment: Ras GTP binding domain inhibition assay (labeled-GTP competition, cell-free)
T1 construct: made in house
Text: (§1) This is a competitive binding assay. It involves the immobilization of a protein on solid phase, interaction with a small molecule drug candidate, and then competitive binding with a labeled native GTP or GDP ligand.
(§2) In theory, the assay is suitable for use with any GTP or GDP binding protein.
(§3) The following method was developed as specific assay for the following proteins: KRas wild type, KRas Q61H mutant, KRas G12C mutant, KRas G12D mutant, Rac-1, and Rho-A.
(§4) The small GTPases proteins: KRas wild type. KRas Q61H mutant, KRas G12C mutant, KRas G12D mutants, Rac-1, and Rho-A were expressed as His-tagged proteins. In addition, the Guanosine nucleotide Exchange Factor (GEF) Sos protein (residues 556-1049) was expressed as a His-tagged protein. In cells, the guanine nucleotide exchange factor Sos protein promotes activation of Ras proteins by stimulating an exchange of GDP for GTP. The inclusion of Sos to the Ras GTP binding domain inhibition assay may be considered as an alternative representation of physiological cellular conditions for evaluating the inhibitory activity of some of the tested small molecules.
(§5) For the assay, all purified small GTPases proteins were diluted in Buffer-I or Buffer-II to a final concentration of 10-30 μg/mL. 200 μL of each diluted protein was added to a nickel-coated 96-well plate and incubated overnight at 4° C. Then the protein solution was discarded and 200 μL of Buffer-I or Buffer-II was added to each well in the presence of 1% DMSO. Compounds to be tested were added to the protein-coated wells at final concentration of 20 μM, and incubated for 3 hours at room temperature with and without 10-30 μg/mL of Sos added to the final hour of the incubation. When performing IC50 measurements a serial dilution of all tested concentrations was added. Then Cy3-GTP or Cy5-GTP was added to each well to a final concentration of 100 nM. The labeled GTP was incubated for 45 minutes at room temperature. Following GTP incubation, wells were washed 3× in Buffer-I or Buffer-II and 200 μL of Buffer-I or Buffer-II was added to each well. Following washes, the amount of bound labeled-GTP was measured using a SpectraMax M3 (Molecular Devices).

[2] = molecular target: T2, KRas G12D mutant (Homo sapiens, UniProt P01116, G12D); experiment: as above
T2 construct: made in house
Text: as §1, §2, §3, §4, §5

[3] = molecular target: T3, KRas Q61H mutant (Homo sapiens, UniProt P01116, Q61H); experiment: as above
T3 construct: made in house
Text: as §1, §2, §3, §4, §5

[4] = tested on: MIA-PaCa-2 pancreatic cancer cell line (KRAS G12C); experiment: Cell proliferation assay (CellTiter 96 Aqueous One); type: cell-based; settings: Homo sapiens; for IC50: MIA PaCa-2, MIA PaCa-2; for inhibition at 10 µM: MIA PaCa-2, read-out: % inh cell proliferation (10 μM) in MIA PaCa-2
Protocol: Cell lines: Human tumor-derived cell lines were purchased from American Type Culture Collection. Human tumor-derived pancreatic cancer cell line MIA-PACA2 (having a KRAS G12C mutation) and Panc-1 (having a KRAS G12D mutation), and Human non-small cell lung cancer (NSCLC) cell line A549 (having a KRAS G12S mutation) were grown in complete DMEM-High Glucose. Human colon cancer cell line SW-620 (having a KRAS G12V mutation) was grown in RPMI. All cell lines were supplemented with penicillin (100 U/mL), streptomycin (100 μg/mL), and 10% heat-inactivated FBS at 37° C. in a humidified incubator with 5% CO2.
Method: Cells were plated at 2000 to 5000 cells/well density in 96-wells plate and cultured overnight. Small molecules to be tested were added to the cells in the final concentration of 10 μM in the presence of 0.3% DMSO and 10% FBS, and incubated for 2-4 days at 37° C. in a humidified incubator with 5% CO2. For IC50 value determination, serial dilutions of compounds were added to cells under the same conditions.
Assay: At the end of the incubation period, cell viability was measured using the CellTiter 96® Aqueous One Solution Cell Proliferation Assay according to manufacturer specifications (Promega, Madison, Wis.). The percentage of small molecules inhibition of cellular proliferation was calculated from raw data.

[5] = molecular target: KRas wild type (Homo sapiens, UniProt P01116); experiment: Ras GTP binding domain inhibition assay (labeled-GTP competition, cell-free); set-up: made in house
Text: as §1, §2, §3, §4, §5

[6] = molecular target: Rac-1 (Homo sapiens, UniProt P63000); experiment: as above; set-up: made in house
Text: as §1, §2, §3, §4, §5

[7] = molecular target: Rho-A (Homo sapiens, UniProt P61586); experiment: as above; set-up: made in house
Text: as §1, §2, §3, §4, §5

[8] = with SOS, read-out: KRas G12C mutant + SOS: % inh.
[9] = without SOS, read-out: KRas G12C mutant: % inh.
[10] = with SOS, read-out: KRas G12D mutant + SOS: % inh.
[11] = without SOS, read-out: KRas G12D mutant: % inh.
[12] = with SOS, read-out: KRas Q61H mutant + SOS: % inh.
[13] = without SOS, read-out: KRas Q61H mutant: % inh.
[14] = with SOS, read-out: KRas wild type + SOS: % inh.
[15] = without SOS, read-out: KRas wild type: % inh.
[16] = with SOS, read-out: Rac-1 + SOS: % inh.
[17] = without SOS, read-out: Rac-1: % inh.
[18] = with SOS, read-out: Rho-A + SOS: % inh.
[19] = without SOS, read-out: Rho-A: % inh.

inhibition at 20 µM [1, 8]	inhibition at 20 µM [1, 9]	inhibition at 20 µM [2, 10]	inhibition at 20 µM [2, 11]	inhibition at 20 µM [3, 12]	inhibition at 20 µM [3, 13]	IC50 ([3]; with SOS)	IC50 [4]	inhibition at 20 µM [5, 14]	inhibition at 20 µM [5, 15]	inhibition at 20 µM [6, 16]	inhibition at 20 µM [6, 17]	inhibition at 20 µM [7, 18]	inhibition at 20 µM [7, 19]	SMILES	inhibition at 10 µM [4]
76 to 100%	76 to 100%	76 to 100%	76 to 100%	76 to 100%	76 to 100%	1 to 4.99 µM	1 to 4.99 µM	76 to 100%	76 to 100%	76 to 100%	76 to 100%	76 to 100%	76 to 100%	COCCn1ccnc1-c1nc(N[C@@H]2CC[C@H](OC)C2)c2c(-c3ccccc3)c(-c3ccn(C)n3)sc2n1 (racemic) [Compound 6, Rac-N-((1R,3S)-3-methoxycyclopentyl)-2-(1-(2-methoxyethyl)-1H-imidazol-2-yl)-6-(1-methyl-1H-pyrazol-3-yl)-5-phenylthieno[2,3-d]pyrimidin-4-amine]	76 to 100%
76 to 100%	76 to 100%	76 to 100%	76 to 100%	76 to 100%	76 to 100%	1 to 4.99 µM	> 10 µM	76 to 100%	76 to 100%	76 to 100%	76 to 100%	76 to 100%	76 to 100%	COCCn1ccnc1-c1nc(N[C@@H]2CC[C@H](OC)C2)c2ccsc2n1 (racemic) [Compound 8, Rac-N-((1R,3S)-3-methoxycyclopentyl)-2-(1-(2-methoxyethyl)-1H-imidazol-2-yl)thieno[2,3-d]pyrimidin-4-amine]	26 to 50%
76 to 100%	51 to 75%			76 to 100%	76 to 100%		< 1 µM	76 to 100%	76 to 100%		26 to 50%		51 to 75%	CO[C@@H]1CC[C@H]1CNc1nc(-c2nccn2C)nc2sc(-c3ccn(C(C)C)n3)c(C)c12 (racemic) [Compound 61, rac-6-(1-Isopropyl-1H-pyrazol-3-yl)-N-(((1S,2R)-2-methoxycyclobutyl)methyl)-5-methyl-2-(1-methyl-1H-imidazol-2-yl)thieno[2,3-d]pyrimidin-4-amine]	76 to 100%
76 to 100%	1 to 25%			51 to 75%	51 to 75%		1 to 4.99 µM	76 to 100%	1 to 25%		1 to 25%		51 to 75%	CO[C@H]1CC[C@@H](Nc2nc(-c3nccn3C)nc3sc(-c4ccn(C(C)C)n4)c(C(F)(F)F)c23)C1 (racemic) [Compound 73, Rac-6-(1-isopropyl-1H-pyrazol-3-yl)-N-((1R,3S)-3-methoxycyclopentyl)-2-(1-methyl-1H-imidazol-2-yl)-5-(trifluoromethyl)thieno[2,3-d]pyrimidin-4-amine]	76 to 100%
51 to 75%	1 to 25%			51 to 75%	51 to 75%		< 1 µM	76 to 100%	26 to 50%		1 to 25%		51 to 75%	COCC1CCN(c2nc(-c3nccn3C)nc3sc(-c4ccn(C(C)C)n4)c(C(F)(F)F)c23)C1 (racemic) [Compound 74, Rac-6-(1-Isopropyl-1H-pyrazol-3-yl)-4-(3-(methoxymethyl)pyrrolidin-1-yl)-2-(1-methyl-1H-imidazol-2-yl)-5-(trifluoromethyl)thieno[2,3-d]pyrimidine]	76 to 100%
51 to 75%	26 to 50%			26 to 50%	51 to 75%		5 to 10 µM	51 to 75%	26 to 50%		1 to 25%		51 to 75%	COC1CCCN(c2nc(-c3nccn3C)nc3sc(-c4ccn(C(C)C)n4)c(C(F)(F)F)c23)C1 (racemic) [Compound 75, Rac-6-(1-Isopropyl-1H-pyrazol-3-yl)-4-(3-methoxypiperidin-1-yl)-2-(1-methyl-1H-imidazol-2-yl)-5-(trifluoromethyl)thieno[2,3-d]pyrimidine]	76 to 100%
76 to 100%	51 to 75%			76 to 100%	51 to 75%		5 to 10 µM	76 to 100%	26 to 50%		51 to 75%		51 to 75%	Cc1c(-c2ccn(C(C)C)n2)sc2nc(-c3nccn3C)nc(NCc3c[nH]cn3)c12 [Compound 59, N-((1H-Imidazol-4-yl)methyl)-6-(1-isopropyl-1H-pyrazol-3-yl)-5-methyl-2-(1-methyl-1H-imidazol-2-yl)thieno[2,3-d]pyrimidin-4-amine]	51 to 75%
51 to 75%	26 to 50%			51 to 75%	51 to 75%		> 10 µM	51 to 75%	51 to 75%		51 to 75%		76 to 100%	Cc1c(-c2ccn(C(C)C)n2)sc2nc(-c3nccn3C)nc(NCc3n[nH]c(=O)n3C)c12 [Compound 60, 5-(((6-(1-Isopropyl-1H-pyrazol-3-yl)-5-methyl-2-(1-methyl-1H-imidazol-2-yl)thieno[2,3-d]pyrimidin-4-yl)amino)methyl)-4-methyl-2,4-dihydro-3H-1,2,4-triazol-3-one]	1 to 25%
76 to 100%	26 to 50%			76 to 100%	26 to 50%		5 to 10 µM	76 to 100%	0%		26 to 50%		26 to 50%	COc1cccc(Nc2nc(-c3nccn3C)nc3sc(-c4ccn(C(C)C)n4)c(C)c23)c1 [Compound 64, 6-(1-Isopropyl-1H-pyrazol-3-yl)-N-(3-methoxyphenyl)-5-methyl-2-(1-methyl-1H-imidazol-2-yl)thieno[2,3-d]pyrimidin-4-amine]	76 to 100%
